Data reported in PMC9718779, “Discrete LAT condensates encode antigen information from single pMHC:TCR binding events” (Nature Communications, 2022).

System: LAT condensation in primary mouse T cells
Assay: Ligand potency for LAT condensation (cumulative distinct LAT condensates per cell)
Format: cell-based
Excerpt: Single-molecule TIRF images are taken at the same power dosage (power*exposure) , either by high laser illumination intensity (8 mW) and short exposure time (25 ms) or by low laser illumination intensity (0.4 mW) and long exposure time (500 ms). Single-molecule TIRF images of long exposure time (500 ms) were collected every 2 to 4 s to localize single pMHC-TCR using a laser illumination intensity of 0.4 mW. LAT-eGFP was monitored at 0.4 mW every 2 to 4 s. When cells were imaged to measure LAT condensation only, the cells were imaged as they landed, or within 60 s of landing, for a duration of 300 s. Cells imaged for NFAT-mCherry was done by epifluorescence using 150-ms exposure time every 50 s at 3 and 6 μm above the coverslip to monitor NFAT dynamics. NFAT monitoring continued for 30 min unless otherwise stated.
LAT condensates were initially tracked with TrackMate’s automated workflows and then each track was manually adjusted for proper linking/detection. A pMHC binding event was considered productive if there existed a LAT condensate trajectory whose first frame of detection could be found within 250 nm of the binding event.
Data presented in Fig. 5 originated from T cells that were exposed to supported membranes containing 600 molecules μm^−2 of ICAM-1 and 0.5 molecules μm^−2 pMHC after loading MHC with one of the peptides from the panel. […]

ANERAELIAYLTQAAEK [T102E, null altered peptide]
rank of productivity in LAT condensate number (MCC, T102S, ER60, T102E, cumulative time-series Fig. 5b): least
LAT signal of null pMHC + ICAM-1 condition (versus ICAM-1 only): did not produce any LAT signal over background levels
